This assay has as its target T1, human DGAT2 (Homo sapiens, UniProt Q96PD7).
T1 construct: FLAG (DYKDDDDK); made in house; host or cells: Sf-21 insect cells (BacPAK baculovirus system); membrane fraction used
T1 sequence (Q96PD7 1-388): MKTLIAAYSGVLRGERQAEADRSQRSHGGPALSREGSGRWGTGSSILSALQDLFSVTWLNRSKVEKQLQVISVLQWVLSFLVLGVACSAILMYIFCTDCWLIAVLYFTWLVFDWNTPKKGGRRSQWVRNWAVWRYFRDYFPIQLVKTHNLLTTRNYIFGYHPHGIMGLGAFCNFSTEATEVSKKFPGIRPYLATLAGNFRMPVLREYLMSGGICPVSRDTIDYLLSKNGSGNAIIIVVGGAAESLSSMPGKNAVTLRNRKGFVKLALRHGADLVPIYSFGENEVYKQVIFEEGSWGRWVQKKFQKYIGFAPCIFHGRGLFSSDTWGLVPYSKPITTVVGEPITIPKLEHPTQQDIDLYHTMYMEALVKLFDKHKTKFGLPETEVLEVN
Put plainly: DGAT2 enzyme activity inhibition, Phospholipid FlashPlate SPA. To be noted: recombinant human DGAT2 membrane protein from Sf-21 cells; inhibition of [14C]-TG production; 37° C. The format is biochemical. Here is the method: In order to prepare the pBacPAK9-DGAT2, which is DGAT2 expression vector, the human DGAT2 gene amplified by polymerase chain reaction (PCR) was cloned into the EcoR1 and Xho1 sites of the pBacPAK9 (clonctech) vector. The nucleotide sequence of the primers used in PCR was the forward primer 5′ […] (SEQ. ID. NO: 2). The composition of the reaction solution was to contain 50 ng of cDNA clone (OriGene), 200 μM of dATP, dCTP, dTTP, dGTP, 200 nM of each primer, 1 unit of Tag DNA Polymerase (Toyobo), 1×PCR buffer, and the final volume was adjusted to 20 μl. The reaction conditions were denatured at 95° C. for 5 minutes, followed by 30 times of 94° C. for 20 seconds, 60° C. for 20 seconds, and 72° C. for 90 seconds, followed by further reaction at 72° C. for 7 minutes.
Recombinant human DGAT2 protein was expressed in Sf-21 cells, which are insect cells, by using the BacPack baculovirus expression system (Clontech). The brief manufacturing process is as follows. First, the pBacPAK9-DGAT2 expression vector was transfected with BacPAK6 virus DNA (Bsu36I digest) into sf21 cells using Bacfectin to prepare a recombinant DGAT2 expressing baculovirus. The thus prepared baculovirus was infected with Sf-21 cells at 10 MOI (multiplicity of infection), and after 72 hours, infected insect cells were collected and membrane proteins were isolated. For membrane protein separation, the cell pellet was dissolved in a sucrose solution containing 250 mM sucrose, 10 mM Tris (pH 7.4), and 1 mM ethylenediamine-tetraacetic acid (EDTA), and then homogenized by using a dounce homogenizer, and the supernatant was taken by centrifuging at 600×g for 15 minutes, and centrifuged at 100,000×g for 1 hour to discard the supernatant, and the remaining pellet was resuspended in 20 mM HEPES buffer (pH 7.4). The prepared DGAT2 overexpressing membrane protein was dispensed in 100 μl and stored at −80° C. until use. Protein concentration was quantified by using the BCA Protein Assay Kit (Thermo Scientific).
In vitro DGAT2 analysis was performed using a Phospholipid Flash Plate (PerkinElmer) based on the principle of SPA (Scintilation Proximity Assay). First, DGAT2 inhibition compounds serially diluted 5 times from 3 nM to 10 μM (final concentration, 1% DMSO) were mixed in a buffer solution containing 2 μg DGAT2-membrane protein and 20 mM HEPES, 20 mM MgCl2, 1 mg/mL BSA, 50 μM 1,2 sn-oleoyl glycerol (Sigma), put in a 96-well flash plate (FlashPlate) and reacted at 37° C. for 20 minutes, and then 1 μM [14C] ole oil CoA (PerkinElmer, NEC651050UC) was added to be a final volume of 100 μL and further reacted at 37° C. for 15 minutes. After the enzymatic reaction was completed, 100 μL of isopropanol was added, the plate was sealed with a film, and the plate was shaken slowly in a plate shaker. The next day, the amplified scintillation signal (cpm) in Topcounter (Packard) was measured to measure the degree of production of [14C]-labeled triacyl glycerol (TG) as a reaction product. The measured value when the compound was not treated was used as a positive control, and the measured value of the compound treated group was calculated as a relative % to measure the inhibition effect of the compound on TG production.
`CCOc1ccccc1O[C@@H]1CCCN(c2cncc(Nc3cccc(N4CCCC(C(=O)O)C4)n3)n2)C1` (stereo partly drawn) [Example 54, 1-(6-((6-((R)-3-(2-ethoxyphenoxy)piperidin-1-yl)pyrazin-2-yl)amino)pyridin-2-yl)piperidine-3-carboxylic Acid]: the IC50 is 910 nM.

Regarding `CCOc1ccccc1O[C@@H]1CCCN(c2cncc(Nc3cccc(N4CCC[C@@H](C(=O)O)C4)n3)n2)C1` [Example 55, (R)-1-(6-((6-((R)-3-(2-ethoxyphenoxy)piperidin-1-yl)pyrazin-2-yl)amino)pyridin-2-yl)piperidine-3-carboxylic Acid], the IC50 was 860 nM. As for `CCOc1ccccc1O[C@@H]1CCCN(c2cncc(Nc3cccc(N4CCC(C(=O)O)CC4)n3)n2)C1` [Example 56, (R)-1-(6-((6-(3-(2-ethoxyphenoxy)piperidin-1-yl)pyrazin-2-yl)amino)pyridin-2-yl)piperidine-4-carboxylic Acid], the figure is 130 nM; as for `CCOc1ccccc1O[C@@H]1CCCN(c2cncc(Nc3cccc(N4CCC(CC(=O)O)CC4)n3)n2)C1` [Example 57, (R)-2-(1-(6-((6-(3-(2-ethoxyphenoxy)piperidin-1-yl)pyrazin-2-yl)amino)pyridin-2-yl)piperidin-4-yl)acetic Acid], 330 nM; as for `CCOc1ccccc1O[C@@H]1CCCN(c2cncc(Nc3cccc(N4CCC(C(C)(C)C(=O)O)CC4)n3)n2)C1` [Example 58, (R)-2-(1-(6-((6-(3-(2-ethoxyphenoxy)piperidin-1-yl)pyrazin-2-yl)amino)pyridin-2-yl)piperidin-4-yl)-2-methylpropanoic Acid], 310 nM. Consider `CCOc1ccccc1O[C@@H]1CCCN(c2cncc(Nc3cccc(N4CCC[C@H](OCC(=O)O)C4)n3)n2)C1` [Example 59], for which the IC50 stood at 3700 nM. Then `CCOc1ccccc1O[C@@H]1CCCN(c2cncc(Nc3cccc(-c4cccc(C(C)(C)C(=O)O)c4)n3)n2)C1` [Example 60, (R)-2-(3-(6-((6-(3-(2-ethoxyphenoxy)piperidin-1-yl)pyrazin-2-yl)amino)pyridin-2-yl)phenyl)-2-methylpropanoic Acid], with 220 nM. Then `CCOc1ccccc1O[C@@H]1CCCN(c2cncc(Nc3cccc(-c4ccc(C(C)(C)C(=O)O)cc4)n3)n2)C1` [Example 61, (R)-2-(4-(6-((6-(3-(2-ethoxyphenoxy)piperidin-1-yl)pyrazin-2-yl)amino)pyridin-2-yl)phenyl)-2-methylpropanoic Acid], with 91 nM.

`CCOc1cccnc1O[C@@H]1CCCN(c2cncc(Nc3cccc(-c4ccc(C(C)(C)C(=O)O)cc4)n3)n2)C1` [Example 62, (R)-2-(4-(6-((6-(3-((3-ethoxypyridin-2-yl)oxy)piperidin-1-yl)pyrazin-2-yl)amino)pyridin-2-yl)phenyl)-2-methylpropanoic Acid]: the IC50 stood at 170 nM. As for `CCOc1ccccc1O[C@@H]1CCCN(c2cncc(Nc3cccc(-c4cccc(CC(C)(C)C(=O)O)c4)n3)n2)C1` [Example 63, (R)-3-(3-(6-((6-(3-(2-ethoxyphenoxy)piperidin-1-yl)pyrazin-2-yl)amino)pyridin-2-yl)phenyl)-2,2-dimethylpropanoic Acid], the IC50 was 71 nM. As for `CCOc1cccnc1O[C@@H]1CCCN(c2cncc(Nc3cccc(-c4cccc(CC(C)(C)C(=O)O)c4)n3)n2)C1` [Example 64, (R)-3-(3-(6-((6-(3-((3-ethoxypyridin-2-yl)oxy)piperidin-1-yl)pyrazin-2-yl)amino)pyridin-2-yl)phenyl)-2,2-dimethylpropanoic Acid], the figure is 130 nM; as for `CCOc1ccccc1O[C@@H]1CCCN(c2cccc(Nc3cccc(-c4cccc(CC(C)(C)C(=O)O)c4)n3)n2)C1` [Example 65, (R)-3-(3-(6-((6-(3-(2-ethoxyphenoxy)piperidin-1-yl)pyridin-2-yl)amino)pyridin-2-yl)phenyl)-2,2-dimethylpropanoic Acid], 1500 nM. Consider `CCOc1ccccc1O[C@@H]1CCCN(c2nccc(Nc3cccc(-c4cccc(CC(C)(C)C(=O)O)c4)n3)n2)C1` [Example 66, (R)-3-(3-(6-((2-(3-(2-ethoxyphenoxy)piperidin-1-yl)pyrimidin-4-yl)amino)pyridin-2-yl)phenyl)-2,2-dimethylpropanoic Acid], for which the IC50 came to 3500 nM. Then `CCOc1ccccc1O[C@@H]1CCCN(c2ccnc(Nc3cccc(-c4cccc(CC(C)(C)C(=O)O)c4)n3)n2)C1` [Example 67, (R)-3-(3-(6-((4-(3-(2-ethoxyphenoxy)piperidin-1-yl)pyrimidin-2-yl)amino)pyridin-2-yl)phenyl)-2,2-dimethylpropanoic Acid], with 2400 nM; and `CCOc1cccnc1O[C@@H]1CCCN(c2ccnc(Nc3cccc(-c4cccc(CC(C)(C)C(=O)O)c4)n3)n2)C1` [Example 68, (R)-3-(3-(6-((4-(3-((3-ethoxypyridin-2-yl)oxy)piperidin-1-yl)pyrimidin-2-yl)amino)pyridin-2-yl)phenyl)-2,2-dimethylpropanoic Acid], with 3300 nM; and `CCOc1ccccc1O[C@@H]1CCCN(c2cncc(Nc3ccn(-c4cccc(CC(C)(C)C(=O)O)c4)n3)n2)C1` [Example 69, (R)-3-(3-(3-((6-(3-(2-ethoxyphenoxy)piperidin-1-yl)pyrazin-2-yl)amino)-1H-pyrazol-1-yl)phenyl)-2,2-dimethylpropanoic Acid], with 1100 nM. As for `CCOc1ccccc1O[C@@H]1CCCN(c2ncc(C(F)(F)F)c(Nc3cccc(-c4cccc(CC(C)(C)C(=O)O)c4)n3)n2)C1` [Example 70, (R)-3-(3-(6-((2-(3-(2-ethoxyphenoxy)piperidin-1-yl)-5-(trifluoromethyl)pyrimidin-4-yl)amino)pyridin-2-yl)phenyl)-2,2-dimethylpropanoic Acid], the IC50 was above 10000 nM.

In the case of `CCOc1ccccc1O[C@@H]1CCCN(c2nc(Nc3cccc(-c4cccc(CC(C)(C)C(=O)O)c4)n3)ncc2C(F)(F)F)C1` [Example 71, (R)-3-(3-(6-((4-(3-(2-ethoxyphenoxy)piperidin-1-yl)-5-(trifluoromethyl)pyrimidin-2-yl)amino)pyridin-2-yl)phenyl)-2,2-dimethylpropanoic Acid], the IC50 was found to be 670 nM. As for `CCOc1ccccc1O[C@@H]1CCCN(c2cncc(Nc3cccc(-c4ccc(CC(C)(C)C(=O)O)cc4)n3)n2)C1` [Example 72, (R)-3-(4-(6-((6-(3-(2-ethoxyphenoxy)piperidin-1-yl)pyrazin-2-yl)amino)pyridin-2-yl)phenyl)-2,2-dimethylpropanoic Acid], the IC50 turned out to be 140 nM.

Turning to `CCOc1ccccc1O[C@@H]1CCCN(c2cncc(Nc3cccc(-c4ccc(NCC(=O)O)cc4)n3)n2)C1` [Example 73, (R)-(4-(6-((6-(3-(2-ethoxyphenoxy)piperidin-1-yl)pyrazin-2-yl)amino)pyridin-2-yl)phenyl)glycine], the IC50 was 890 nM. In the case of `CCOc1cccnc1O[C@@H]1CCCN(c2cncc(Nc3cccc(-c4ccc(NCC(=O)O)cc4)n3)n2)C1` [Example 74, (R)-(4-(6-((6-(3-((3-ethoxypyridin-2-yl)oxy)piperidin-1-yl)pyrazin-2-yl)amino)pyridin-2-yl)phenyl)glycine], the IC50 was 980 nM.

The term IC50 denotes the point on the concentration scale where inhibition reaches its midpoint.

The values are drawn from patent US12630528B2, “Amino aryl derivative useful as diacylglycerol acyltransferase 2 inhibitor and use thereof” (LG CHEM, LTD., priority 2019, dated 2026).
